Experimental data taken from the NIST ThermoML archive (doi:10.1021/acs.jced.8b00466).

Assay: wn = mass fraction of the nth substance listed
Conditions: 102 kPa, Liquid, Vibrating tube method

O=S(=O)(O)O [sulfuric acid] + O
mass density [kg/m3]
Conditions | 273.15 K | 283.15 K | 293.15 K | 298.15 K | 303.15 K | 313.15 K | 323.15 K | 333.15 K
w1 = 0.0966 | 1069.26 | 1066.08 | 1062.3 | 1060.23 | 1058.04 | 1053.6 | 1049.23 | 1043.53
w1 = 0.1151 | 1085.84 | 1082.07 | 1077.83 | 1075.55 | 1073.22 | 1068.89 | 1063.56 | 1058.71
w1 = 0.1365 | 1101.81 | 1097.5 | 1092.86 | 1090.39 | 1087.86 | 1082.6 | 1078.45 | 1072.64
w1 = 0.1536 | 1114.2 | 1109.5 | 1104.52 | 1101.94 | 1099.31 | 1093.86 | 1089.88 | 1084.63
w1 = 0.1728 | 1128.95 | 1123.83 | 1118.46 | 1115.73 | 1112.95 | 1107.33 | 1101.93 | 1095.88
w1 = 0.192 | 1145.91 | 1140.32 | 1134.59 | 1131.69 | 1128.88 | 1123.78 | 1118.59 | 1113.22
w1 = 0.2112 | 1159.41 | 1153.51 | 1147.52 | 1144.52 | 1141.48 | 1135.36 | 1129.37 | 1124.62
w1 = 0.2304 | 1177.19 | 1170.92 | 1164.6 | 1161.54 | 1158.39 | 1152.03 | 1148.5 | 1140.31
w1 = 0.2409 | 1185.57 | 1179.14 | 1172.69 | 1169.48 | 1166.27 | 1160.54 | 1154.05 | 1147.47
w1 = 0.2688 | 1209.44 | 1201.63 | 1194.85 | 1191.58 | 1188.22 | 1181.52 | 1174.82 | 1168.95
w1 = 0.288 | 1224.11 | 1217.14 | 1210.18 | 1206.76 | 1203.33 | 1196.6 | 1189.76 | 1183.88
w1 = 0.3072 | 1241.05 | 1233.47 | 1227.15 | 1223.62 | 1220.11 | 1213.75 | 1206.84 | 1200.67
w1 = 0.3265 | 1256.77 | 1249.51 | 1242.27 | 1238.85 | 1235.29 | 1228.03 | 1221.02 | 1214.92
w1 = 0.3457 | 1272.18 | 1264.81 | 1257.51 | 1253.89 | 1250.3 | 1243.38 | 1236.27 | 1230.89
w1 = 0.3648 | 1288.04 | 1280.59 | 1273.21 | 1269.57 | 1265.94 | 1258.73 | 1251.57 | 1244.44
w1 = 0.384 | 1305.68 | 1298.19 | 1290.73 | 1287.05 | 1283.37 | 1276.2 | 1268.99 | 1263.24
w1 = 0.4 | 1319.14 | 1311.55 | 1304.07 | 1300.36 | 1296.68 | 1289.37 | 1282.4 | 1275.2
